Values joined by “and” are separate entries in the source; they are usually repeats but may differ in a detail not shown here. Equal entries are not always repeated.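 Each compound was tested at five concentrations against cells in 96-well plates for 48 hours. Abbreviation: GI50, concentration required for 50% inhibition of growth. TGI: concentration producing complete growth inhibition.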
Key:
Experiment in all cases: NCI-60 cell line screen, 48 h
A549 NSCLC = tested on: A549 NSCLC
CCRF-CEM leukemia = tested on: CCRF-CEM leukemia
HCT-116 colon = tested on: HCT-116 colon
HL-60(TB) leukemia = tested on: HL-60(TB) leukemia
K-562 leukemia = tested on: K-562 leukemia
LOX IMVI melanoma = tested on: LOX IMVI melanoma
MOLT-4 leukemia = tested on: MOLT-4 leukemia
NCI-H23 lung = tested on: NCI-H23 lung
PC-3 prostate = tested on: PC-3 prostate
SK-MEL-2 melanoma = tested on: SK-MEL-2 melanoma

| SMILES | GI50 (A549 NSCLC) [nM] | TGI (A549 NSCLC) | GI50 (CCRF-CEM leukemia) [nM] | TGI (CCRF-CEM leukemia) [nM] | GI50 (HCT-116 colon) [nM] | TGI (HCT-116 colon) | GI50 (HL-60(TB) leukemia) [nM] | TGI (HL-60(TB) leukemia) | GI50 (K-562 leukemia) [nM] | GI50 (LOX IMVI melanoma) [nM] | TGI (LOX IMVI melanoma) | GI50 (MOLT-4 leukemia) [nM] | TGI (MOLT-4 leukemia) [nM] | GI50 (NCI-H23 lung) [nM] | TGI (NCI-H23 lung) | GI50 (PC-3 prostate) [nM] | TGI (PC-3 prostate) [nM] | GI50 (SK-MEL-2 melanoma) [nM] | TGI (SK-MEL-2 melanoma) | TGI (K-562 leukemia) [nM] |
| --- | --- | --- | --- | --- | --- | --- | --- | --- | --- | --- | --- | --- | --- | --- | --- | --- | --- | --- | --- | --- |
| CC12CCC=CC1CCC1C2CCC2(C)C(c3ccc(=O)oc3)CCC12O (configuration not stated) | 29.5 | 111 nM | 36.4 | 544 | 39.6 | 389 nM | 25.7 | 68.9 nM | 58.7 | 33 | 141 nM | 28.2 | 96.7 | 49.2 | 302 nM | 53.4 | 317 | 250 | 828 nM | – |
| COc1cc2c(cc1OC)-c1ccc3cc4c(cc3c1N(CCN1CCCC1)C2)OCO4 | 534 | 2020 nM | 186 | 4360 | 477 | 1760 nM | 882 | 2700 nM | 291 | 309 | 1390 nM | 228 | 3440 | 447 | 2140 nM | 303 | 1850 | 7610 | 20100 nM | 1650 |
| CCc1ccc(NC(=O)Nc2c[nH]c3ccccc23)cc1 | 6260 | > 48000 nM | 358 | > 100000 | 32900 | > 56000 nM | 811 | 5480 nM | 6890 | 25800 | > 50200 nM | 1850 | > 100000 | 36300 | > 54100 nM | 5130 | > 63700 | 35500 | > 52100 nM | > 100000 |
| CCN(CC)CCOc1ccc(C(=C(C)c2ccc(Cl)cc2)c2ccc(OCCN(CC)CC)cc2)cc1 | 632 | 1310 nM | 625 | 1710 | 591 | 1160 nM | 639 | 1340 nM | 627 | 552 | 1030 nM | 674 | 1500 | 1880 | 6410 nM | 630 | 1360 | 661 | 1320 nM | 1740 |
| OCC1OC(n2ccc3c2ncn2ncnc32)C(O)C1O (configuration not stated) | 4910 | > 100000 nM | 596 | > 100000 | 1380 | > 100000 nM | 854 | 5500 nM | 2070 | 290 | 1760 nM | 407 | > 43100 | 1400 | > 100000 nM | 459 | 22800 | 46200 | > 100000 nM | > 100000 |
| CCc1c(C)[nH]c(/C=C2\N=C(c3ccc[nH]3)C=C2OC)c1C | 498 | 10500 nM | < 25.7 | 2110 | < 46.2 | – | 127 | 2100 nM | 805 | < 32.8 | – | < 39.4 | 4180 | 1100 | 11300 nM | 153 | 10800 | 234 | 989 nM | 8970 |
| CC[C@](C)(O)C(=O)O[C@H]1C(=O)O[C@@H]2C[C@H]3C(C)=CC(=O)[C@@H](O)[C@]3(C)[C@H]3[C@@]4(O)OC[C@]32[C@@H]1[C@@H](C)[C@H]4O | 2750 | 14900 nM and 9660 nM | 89.7 | – | 220 | 957 nM and 376 nM | 104 | 4110 nM and 1090 nM | 84.1 | 56.3 | 278 nM and 545 nM | 36.6 | – | 50 | 532 nM and 136 nM | – | 44500 | – | 644 nM and 217 nM | – |
| CC1(C)CCC2(C(=O)OC3OC(CO)C(O)C(O)C3O)CC[C@]3(C)C(=CCC4C5(C)CC[C@H](OC6OC(C(=O)O)C(O)C(O)C6O)C(C)(C)C5CCC43C)C2C1 (some centres not stated) | 1830 | 20200 nM | 23100 | > 50000 | 1120 | 2380 nM | 1220 | 3450 nM | 1580 | 807 | 1490 nM | 997 | 2840 | 1480 | 3730 nM | 1260 | 3470 | 1850 | 10700 nM | > 50000 |
| O=C(O)CSSCC(=O)O | – | > 100000 nM | – | > 100000 | – | > 100000 nM | – | > 100000 nM | – | – | > 100000 nM | – | > 100000 | – | > 100000 nM | – | > 100000 | – | > 100000 nM | > 100000 |

From PubChem BioAssay (NCI)
